Columns and labels:
Assay type in all cases: cell-based, Human
[1] = tested on: Aβ-GFP SH-SY5Y cells; assay: High content analysis of Aβ-GFP fluorescence
Experimental: Human neuroblastoma SH-SY5Y-derived Aβ-GFP [23] and ∆K280 tauRD-DsRed cells were kept in DMEM/nutrient mixture F12 (DMEM/F12) containing 10% FBS, 5 μg/ml blasticidin, and 100 μg/ml hygromycin (InvivoGen, San Diego, CA, USA). Doxycycline (Sigma-Aldrich) was applied to induce the expression of Aβ-GFP (5 μg/ml doxycycline) or ∆K280 tauRD-DsRed (2 μg/ml doxycycline).
On day 1, Aβ-GFP or ∆K280 tauRD-DsRed SH-SY5Y cells were seeded into 96-well plates (2.5 × 10^4/well) and treated with retinoic acid (10 μM; Sigma-Aldrich) to prompt neuronal differentiation. […] Image Acquisition and Analysis Software (MetaXpress) (Molecular Devices, Sunnyvale, CA, USA) was used to analyse the images. CellROX Orange (5 μM; Molecular Probes, Eugene, OR, USA) (for Aβ-GFP cells) or dichloro-dihydro-fluorescein diacetate (DCFH-DA, 10 μM; Invitrogen) (for ∆K280 tauRD-DsRed cells) was added to the cells and incubated at 37°C for 30 min.

[2] = tested on: CRE-GFP 293 cells; assay: CRE-GFP 293 reporter cell assay (flow cytometry); conditions: 5–10 μM, 5 h, in the presence or absence of Ca2+ ionophore (2 μM)
[3] = tested on: ∆K280 tauRD-DsRed SH-SY5Y cells; assay: Real-time PCR of tauRD-DsRed RNA; conditions: 10 μM
Experimental: To measure the Aβ-GFP/tauRD-DsRed RNA expression on day 8, total RNA was extracted from collected cells and reverse-transcribed to cDNA (SuperScript III reverse transcriptase; Invitrogen, Waltham, MA, USA). Real-time quantitative PCR was performed using 100 ng of cDNA and the gene-specific TaqMan fluorogenic probe PN4331348 (EGFP) or customized Assays-by-Design probe for DsRed and 4326321E (HPRT1) (StepOnePlus Real-time PCR system, Applied Biosystems, Foster City, CA, USA). The RNA expression level was calculated using the formula 2^ΔCt, ΔCT = CT (control) − CT (target), in which CT indicates the cycle threshold.

[4] = tested on: ∆K280 tauRD-DsRed SH-SY5Y cells; assay: ROS assay (DCFH-DA) in ΔK280 tauRD-DsRed cells; conditions: 10 μM
Experimental: On day 1, Aβ-GFP or ∆K280 tauRD-DsRed SH-SY5Y cells were seeded into 96-well plates (2.5 × 10^4/well) and treated with retinoic acid (10 μM; Sigma-Aldrich) to prompt neuronal differentiation. […] On day 8, cells were stained with Hoechst 33342 (0.1 μg/ml; Sigma-Aldrich) for 30 min, and cell images were automatically captured at excitation/emission wavelengths of 482/[…] (GFP fluorescence) or 543/593 nm (DsRed fluorescence) using a high content analysis (HCA) system (Micro Confocal High-Content Imaging System). Image Acquisition and Analysis Software (MetaXpress) (Molecular Devices, Sunnyvale, CA, USA) was used to analyse the images. CellROX Orange (5 μM; Molecular Probes, Eugene, OR, USA) (for Aβ-GFP cells) or dichloro-dihydro-fluorescein diacetate (DCFH-DA, 10 μM; Invitrogen) (for ∆K280 tauRD-DsRed cells) was added to the cells and incubated at 37°C for 30 min. The HCA system was used to measure intracellular ROS at 531/593 nm (CellROX Orange fluorescence) or 482/536 nm (DCFH-DA fluorescence) of excitation/emission wavelengths.

For `CN(C)c1ccc(/C=C/C(=O)c2c(O)c3ccccc3oc2=O)cc1` [LM-021, (E)-3-(3-(4-(dimethylamino)phenyl)acryloyl)-4-hydroxy-2H-chromen-2-one], the “Toxicity in SH-SY5Y cells” value ([1]; Aβ-GFP and ΔK280 tauRD-DsRed SH-SY5Y cells (Figures 3 and 4)) was “low toxicity”, the EC50 ([1]; Homo sapiens, Aβ-GFP SH-SY5Y cells, tested 1.2–5 μM, read-out: EC50 in Aβ aggregation inhibition (GFP fluorescence)) was 5.1 µM and the “Concentration significantly augmenting green fluorescence intensity (Aβ-GFP)” value ([1]; tested 1.2–5 μM, day 8) was 1.2 to 5 µM. The “CRE-motif-driven GFP expression” value [2] was “significantly activated”, the “∆K280 tauRD-DsRed RNA level” value [3] was “did not significantly alter” and the “ROS level elevated by ∆K280 tauRD overexpression” value [4] was “effectively reduced”.
